Source: patent publication US5034520A, “Process for recovering heparinic oligosaccharides with an affinity for cell growth factors” (Sanofi, priority 1986, dated 1991)

How the values were obtained:
[1] = tested on: human endothelial cells of the umbilical vein; experiment: Proliferation of human umbilical vein endothelial cells, with or without FGFa; type: cell-based
Description: At confluence (5-7 days), the cells are detached by an EDTA-trypsin mixture.
48 hours latter, growth factor is added again. After 4 days of culture, the cells are detached by the EDTA-trypsin mixture and the cells are counted by means of a cell counter (Coulter Counter ® Coultronics). Each experimental curve (FIG. 14A-D) represents a typical experiment conducted in triplicate. Each experiment is repeated 2 to 3 times.

[2] = tested on: LE II cells (endothelial cells of mouse lung); experiment: Tritiated thymidine incorporation in quiescent LE II cells, with or without anionic FGF; type: cell-based
Description: LE II cells (endothelial cells of mouse lung) are cultivated on plates containing 24 wells in the presence of 10% foetal calf serum until 3/4 of confluence is attained.
The cells are then maintained for 48 hours in only 0.2% serum and rendered quiescent.
The growth medium is then supplemented with either fibroblast growth factor (FGF) or the oligosaccharide fragments to be tested or both products simultaneously (FGF+product to be tested).
The culture is maintained for a further 24 hours and tritiated thymidine is added 4 hours before the end of the experiment.
The radioactivity incorporated is then counted; each measurement is made in triplicate.

Molecule | ED 50 of FGFa (50% of maximal proliferation) ([1]; FGFa in the absence of oligosaccharides, 10% FCS) | maximal increase of the number of cells ([1]; FGFa without oligosaccharides, versus 10% FCS alone) [%] | dose giving plateau of stimulation ([2]; anionic FGF alone (FIG. 10)) [ng/mL] | plateau of thymidine incorporation after stimulation ([2]; anionic FGF alone, 5 ng/ml (FIG. 10))
FGFa: acidic FGF (FGFa) | about 7 ng/ml | 230 |  | 
anionic FGF: anionic FGF prepared from beef brain according to Lobb and Fett (protein, UniProt P03968 16-155, looked up) Fibroblast growth factor 1: FNLPLGNYKKPKLLYCSNGGYFLRILPDGTVDGTKDRSDQHIQLQLCAESIGEVYIKSTETGQFLAMDTDGLLYGSQTPNEECLFLERLEENHYNTYISKKHAEKHWFVGLKKNGRSKLGPRTHFGQKAILFLPLPVSSD |  |  | 5 | 126,000 cpm
